Test results: ChEMBL document CHEMBL1926526, “Mefloquine-oxazolidine derivatives, derived from mefloquine and arenecarbaldehydes: In vitro activity including against the multidrug-resistant tuberculosis strain T113” (Bioorg Med Chem, 2012)
Converted amounts (≈) assume the structure as drawn. The source made the active and inactive calls. The rule behind the calls is not given here.

Tested on: Mycobacterium tuberculosis
Test: Antimycobacterial activity against multiple drug-resistant Mycobacterium tuberculosis isolate T113 by alamar blue assay
Assay type: functional

SMILES	MIC [µM]	Activity
COc1cccc(C2O[C@@H](c3cc(C(F)(F)F)nc4c(C(F)(F)F)cccc34)[C@H]3CCCCN23)c1 (mixture of isomers)	25.2	–
COc1ccc(C2O[C@@H](c3cc(C(F)(F)F)nc4c(C(F)(F)F)cccc34)[C@H]3CCCCN23)cc1 (mixture of isomers)	25.2	–
Fc1ccc(C2O[C@@H](c3cc(C(F)(F)F)nc4c(C(F)(F)F)cccc34)[C@H]3CCCCN23)cc1 (mixture of isomers)	25.8	–
Oc1ccccc1C1O[C@@H](c2cc(C(F)(F)F)nc3c(C(F)(F)F)cccc23)[C@H]2CCCCN12 (mixture of isomers)	25.9	–
Oc1ccc(C2O[C@@H](c3cc(C(F)(F)F)nc4c(C(F)(F)F)cccc34)[C@H]3CCCCN23)cc1 (mixture of isomers)	25.9	–
COc1ccccc1C1O[C@@H](c2cc(C(F)(F)F)nc3c(C(F)(F)F)cccc23)[C@H]2CCCCN12 (mixture of isomers)	12.6	–
O=[N+]([O-])c1ccc(C2O[C@@H](c3cc(C(F)(F)F)nc4c(C(F)(F)F)cccc34)[C@H]3CCCCN23)s1 (mixture of isomers)	12.1	–
FC(F)(F)c1cc([C@@H]2OC(c3cccc(Cl)c3Cl)N3CCCC[C@H]23)c2cccc(C(F)(F)F)c2n1 (mixture of isomers)	–	inactive
FC(F)(F)c1cc([C@@H]2OC(c3ccc(Cl)c(Cl)c3)N3CCCC[C@H]23)c2cccc(C(F)(F)F)c2n1 (mixture of isomers)	–	inactive
FC(F)(F)c1cc([C@@H]2OC(c3ccc(Cl)cc3Cl)N3CCCC[C@H]23)c2cccc(C(F)(F)F)c2n1 (mixture of isomers)	–	inactive
FC(F)(F)c1cc([C@@H]2OC(c3c(Cl)cccc3Cl)N3CCCC[C@H]23)c2cccc(C(F)(F)F)c2n1 (mixture of isomers)	–	inactive
COc1cccc(C2O[C@@H](c3cc(C(F)(F)F)nc4c(C(F)(F)F)cccc34)[C@H]3CCCCN23)c1OC (mixture of isomers)	11.9	–
CCOc1cccc(C2O[C@@H](c3cc(C(F)(F)F)nc4c(C(F)(F)F)cccc34)[C@H]3CCCCN23)c1 (mixture of isomers)	24.5	–
COc1cc(C2O[C@@H](c3cc(C(F)(F)F)nc4c(C(F)(F)F)cccc34)[C@H]3CCCCN23)cc(OC)c1OC (mixture of isomers)	22.5	–
FC(F)(F)c1cc([C@@H]2OC(c3ccccc3)N3CCCC[C@H]23)c2cccc(C(F)(F)F)c2n1 (mixture of isomers)	26.8	–
O=[N+]([O-])c1ccc(C2O[C@@H](c3cc(C(F)(F)F)nc4c(C(F)(F)F)cccc34)[C@H]3CCCCN23)o1 (mixture of isomers)	99.8	–
FC(F)(F)c1cc([C@@H]2OC(c3ncc[nH]3)N3CCCC[C@H]23)c2cccc(C(F)(F)F)c2n1 (mixture of isomers)	27.4	–
CC[C@@H](CO)NCCN[C@@H](CC)CO [ETHAMBUTOL]	61.2 (≈ 12.5 µg/mL)	–
OC(c1cc(C(F)(F)F)nc2c(C(F)(F)F)cccc12)C1CCCCN1 (centres undefined) [MEFLOQUINE]	33 (≈ 12.5 µg/mL)	–
